Laboratory results from patent US20210139484A1, “DIHYDROISOQUINOLINE-2(1H)-CARBOXAMIDE AND RELATED COMPOUNDS AND THEIR USE IN TREATING MEDICAL CONDITIONS” (GOSSAMER BIO SERVICES, INC., priority 2018, published 2021).

Target: T1, human HPK1 protein (Homo sapiens, UniProt Q92918)
T1 construct: recombinant human HPK1 protein (a.a. 1-346) was expressed in Sf9 insect cells; GST (N); purchased Signalchem M23-11G; host or cells: Sf9 insect cells (baculovirus)
T1 sequence (Q92918 1-346): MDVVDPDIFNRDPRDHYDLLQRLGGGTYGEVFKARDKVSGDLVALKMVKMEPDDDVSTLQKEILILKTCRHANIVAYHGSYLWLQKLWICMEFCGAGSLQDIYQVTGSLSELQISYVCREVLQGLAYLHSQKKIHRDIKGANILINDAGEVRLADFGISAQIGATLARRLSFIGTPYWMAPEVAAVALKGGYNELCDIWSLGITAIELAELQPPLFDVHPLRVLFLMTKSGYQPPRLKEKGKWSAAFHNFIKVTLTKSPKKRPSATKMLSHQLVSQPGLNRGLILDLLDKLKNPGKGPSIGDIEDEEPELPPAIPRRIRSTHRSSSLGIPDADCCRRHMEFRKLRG
Test: Human HPK1 protein TR-FRET assay
Type: biochemical
Details: 1 mM ATP, Table 19
Protocol: Exemplary compounds from the above Examples were tested for ability to inhibit HPK1 using a human HPK1 protein TR-FRET Assay. Assay procedures and results are described below.
N-terminal GST-tagged recombinant human HPK1 protein (a.a. 1-346) was expressed in Sf9 insect cells using a baculovirus expression system (Signalchem Catalog #M23-11G). The enzyme was diluted in assay buffer (50 mM Tris pH 7.5, 1 mM MgCl2, 0.01% NP-40 and 2 mM DTT) to obtain a 4× working solution at a concentration of 40 nM HPK1 enzyme.
A 5 μM stock of ULight™ CREBtide peptide RRPSYRK (Perkin Elmer Product No. TRF0107-M) derived from human cAMP Response Element Binding (CREB) Protein was prepared in storage buffer containing 50 mM Tris-HCl (pH 7.4), 0.9% NaCl, 0.1% BSA, and 0.05% sodium azide. The CREBtide substrate was diluted in assay buffer (50 mM Tris pH 7.5, 1 mM MgCl2, 0.01% NP-40, 2 mM DTT) with 2 mM ATP to a final concentration of 200 nM CREBtide peptide to obtain a 2× working solution of substrate. HPK1 enzyme and CREBtide substrate solutions were mixed with compounds diluted in DMSO to obtain a final concentration of enzyme, substrate, and ATP of 10 nM, 100 nM, and 1 mM, respectively, in 1% DMSO. The final assay mixture was incubated at room temperature for 60 minutes.
A solution of Europium-labeled anti-phospho-CREB (Ser133) antibody (Perkin Elmer Product No. TRF0200-M), EDTA and LANCE™ Detection Buffer (Perkin Elmer Product No. CR97-100) were added to each well to obtain a final concentration of 2 nM antibody, 10 mM EDTA and 1× LANCE buffer. The resulting mixture was incubated at room temperature for 60 minutes.
The fluorescence resonance energy transfer (FRET) signal was measured on an Envision plate reader: Excitation filter=340 nm, APC emission=665 nm, Europium emission=615 nm, dichroic mirror=D400/D630, delay time=100 μs, and integration time=200 μs. The half maximal inhibitory concentration (IC50) values for compounds were calculated from the quotient of the fluorescence signal at 665 nm divided by the fluorescence signal at 615 nm. The quotient of the fluorescence signals in the presence of DMSO without compound is set as 100 percent enzymatic activity. A 4-parameter logistic model in PRISM (GraphPad) was used to calculate the IC50 for a given compound.

Compound | IC50 [nM]
C[C@H]1c2cc(Oc3ccnc4[nH]ccc34)ccc2CCN1C(=O)Nc1ccc(CN2CCNCC2)c(C(F)(F)F)c1 [V-1] | < 500
C[C@H]1c2cc(Oc3ccnc4[nH]ccc34)ccc2CCN1C(=O)Nc1ccc(CN2CCN(C)CC2)c(C(F)(F)F)c1 [V-2] | < 500
CCN1CCN(Cc2ccc(NC(=O)N3CCc4ccc(Oc5ccnc6[nH]ccc56)cc4[C@@H]3C)cc2Cl)CC1 [V-3] | < 500
CCN1CCN(Cc2ccc(NC(=O)N3CCc4ccc(Oc5ccnc6[nH]ccc56)cc4[C@@H]3C)cc2C(F)F)CC1 [V-4] | < 500
CCN1CCN(Cc2ccc(NC(=O)N3CCc4ccc(Oc5ccnc6[nH]ncc56)cc4[C@@H]3C)cc2C(F)(F)F)CC1 [V-5] | < 500
CCN1CCN(Cc2ccc(NC(=O)N3CCc4ccc(Oc5ccnn6cccc56)cc4[C@@H]3C)cc2C(F)(F)F)CC1 [V-6] | < 500
CCN1CCN(Cc2ccc(NC(=O)N3CCc4ccc(Oc5ccnn6cc(-c7cnn(C)c7)cc56)cc4[C@@H]3C)cc2C(F)(F)F)CC1 [V-7] | < 500
CCN1CCN(Cc2ccc(NC(=O)N3CCc4ccc(Oc5ccnn6cc(C#N)cc56)cc4[C@@H]3C)cc2C(F)(F)F)CC1 [V-8] | < 500
CCN1CCN(Cc2ccc(NC(=O)N3CCc4ccc(Oc5ncnn6cc(C#N)cc56)cc4[C@@H]3C)cc2C(F)(F)F)CC1 [V-9] | < 500
CCN1CCN(Cc2ccc(NC(=O)N3CCc4ccc(Oc5ccnc6[nH]c(C#N)cc56)cc4[C@@H]3C)cc2C(F)(F)F)CC1 [V-10] | < 500
CCN1CCN(Cc2ccc(NC(=O)N3CCc4ccc(Oc5ccnc(C#N)c5)cc4[C@@H]3C)cc2C(F)(F)F)CC1 [V-11] | 500 to 5000
CCN1CCN(Cc2ccc(NC(=O)N3CCc4ccc(Oc5ccnc(C(N)=O)c5)cc4[C@@H]3C)cc2C(F)(F)F)CC1 [V-12] | 500 to 5000
CCN1CCN(Cc2ccc(NC(=O)N3CCc4ccc(Oc5ccnc(C(=O)NC)c5)cc4[C@@H]3C)cc2C(F)(F)F)CC1 [V-13] | < 500
C[C@H]1c2cc(Oc3ccnc4[nH]ccc34)ccc2CCN1C(=O)Nc1ccc(OC2CCNCC2)c(C(F)F)c1 [V-14] | 500 to 5000
C[C@H]1c2cc(Oc3ccnc4[nH]ccc34)ccc2CCN1C(=O)Nc1ccc(OC2CCN(C)CC2)c(C(F)F)c1 [V-15] | 500 to 5000
CCN1CCC(Oc2ccc(NC(=O)N3CCc4ccc(Oc5ccnc6[nH]ccc56)cc4[C@@H]3C)cc2C(F)F)CC1 [V-16] | 500 to 5000
C[C@H]1c2cc(Oc3ccnc4[nH]ccc34)ccc2CCN1C(=O)Nc1ccc(OC2CCN(CCO)CC2)c(C(F)(F)F)c1 [V-17] | < 500
C[C@H]1c2cc(Oc3ccnc4[nH]ccc34)ccc2CCN1C(=O)Nc1ccc(CN2CCN(CCO)CC2)c(C(F)F)c1 [V-18] | < 500
C[C@H]1c2cc(Oc3ccnc4[nH]ccc34)ccc2CCN1C(=O)Nc1ccc(CN2CCN(CCO)CC2)c(C(F)(F)F)c1 [V-19] | < 500
CCN1CCN(Cc2ccc(NC(=O)N3CCc4ccc(Oc5ccnc6[nH]ccc56)cc4[C@@H]3C)cc2C(F)(F)F)C(=O)C1 [V-20] | 500 to 5000
C[C@H]1c2cc(Oc3ccnc4[nH]ccc34)ccc2CCN1C(=O)Nc1ccc(CN2CCN(C3COC3)CC2)c(C(F)(F)F)c1 [V-21] | 500 to 5000
CCc1cc2c(Oc3ccc4c(c3)[C@H](C)N(C(=O)Nc3ccc(CN5CCN(CC)CC5)c(C(F)(F)F)c3)CC4)ccnc2[nH]1 [V-22] | < 500
CCN1CCN(Cc2ccc(NC(=O)N3CCc4ccc(Oc5ccnc6[nH]c(C7(O)COC7)cc56)cc4[C@@H]3C)cc2C(F)(F)F)CC1 [V-23] | < 500
CCN1CCN(Cc2ccc(NC(=O)N3CCc4ccc(Oc5ccnc6[nH]c(CCO)cc56)cc4[C@@H]3C)cc2C(F)(F)F)CC1 [V-24] | < 500
CCN1CCN(Cc2ccc(NC(=O)N3CCc4ccc(Oc5ccnc6[nH]c(CCOC)cc56)cc4[C@@H]3C)cc2C(F)(F)F)CC1 [V-25] | < 500
CCN1CCN(Cc2ccc(NC(=O)N3CCc4ccc(Oc5ccnc6[nH]c(C7CC7)cc56)cc4[C@@H]3C)cc2C(F)(F)F)CC1 [V-26] | < 500
CCN1CCN(Cc2ccc(NC(=O)N3CCc4ccc(Oc5ccnc6[nH]c(-c7cnn(C)c7)cc56)cc4[C@@H]3C)cc2C(F)(F)F)CC1 [V-27] | < 500
CCN1CCN(Cc2ccc(NC(=O)N3CCc4ccc(Oc5ncnc6[nH]c(C)cc56)cc4[C@@H]3C)cc2C(F)(F)F)CC1 [V-28] | < 500
CCN1CCN(Cc2ccc(NC(=O)N3CCc4ccc(Oc5ccnc6[nH]c(C)cc56)cc4[C@@H]3C)cc2C(F)(F)F)CC1 [V-29] | < 500

More lines, now with the values ahead:

IC50 [nM] | Compound
< 500 | CCN1CCN(Cc2ccc(NC(=O)N3Cc4cc(Oc5ccnc6[nH]c(C)cc56)c(F)cc4C(C)C3)cc2C(F)(F)F)CC1 (stereo not shown) [IV-27]
< 500 | CCN1CCN(Cc2ccc(NC(=O)N3Cc4cc(Oc5ccnc6[nH]c(C)cc56)c(F)cc4C(C)C3)cc2C(F)(F)F)CC1 (stereo not shown) [IV-28]
< 500 | CCN1CCN(Cc2ccc(NC(=O)N3Cc4cc(Oc5ccnc6[nH]c(C)cc56)c(F)cc4C(C)C3)cc2C(F)(F)F)CC1 (stereo not shown) [IV-29]
500 to 5000 | CCN1CCN(Cc2ccc(NC(=O)N3CCc4cc(F)c(Oc5ccnn6cccc56)cc4C3C)cc2C(F)(F)F)CC1 (stereo not shown) [IV-30]
< 500 | CCN1CCN(Cc2ccc(NC(=O)N3CCc4cc(F)c(Oc5ccnn6cccc56)cc4C3C)cc2C(F)(F)F)CC1 (stereo not shown) [IV-31]
> 10000 | CCN1CCN(Cc2ccc(NC(=O)N3CCc4cc(F)c(Oc5ccnn6cccc56)cc4C3C)cc2C(F)(F)F)CC1 (stereo not shown) [IV-32]
< 500 | CCN1CCN(Cc2ccc(NC(=O)N3CCc4cc(F)c(Oc5ncnn6cccc56)cc4C3C)cc2C(F)(F)F)CC1 (stereo not shown) [IV-33]
> 10000 | CCN1CCN(Cc2ccc(NC(=O)N3CCc4cc(F)c(Oc5ncnn6cccc56)cc4C3C)cc2C(F)(F)F)CC1 (stereo not shown) [IV-34]
< 500 | CCN1CCN(Cc2ccc(NC(=O)N3CCc4cc(F)c(Oc5ncnn6cccc56)cc4C3C)cc2C(F)(F)F)CC1 (stereo not shown) [IV-35]
< 500 | CCN1CCN(Cc2ccc(NC(=O)N3Cc4cc(Oc5ccnc6[nH]c(C)cc56)ccc4C(C(C)C)C3)cc2C(F)(F)F)CC1 (stereo not shown) [IV-36]
< 500 | CCCC1CN(C(=O)Nc2ccc(CN3CCN(CC)CC3)c(C(F)(F)F)c2)Cc2cc(Oc3ccnc4[nH]c(C)cc34)ccc21 (stereo not shown) [IV-37]
< 500 | Cc1cc2c(Oc3ccc4c(c3)CN(C(=O)Nc3cnc(OC5CCN(C)CC5)c(C(F)(F)F)c3)CC4C)ccnc2[nH]1 (stereo not shown) [IV-38]
< 500 | Cc1cc2c(Oc3ccc4c(c3)CN(C(=O)Nc3cnc(OC5CCN(C)CC5O)c(C(F)(F)F)c3)CC4C)ccnc2[nH]1 (stereo not shown) [IV-41]
< 500 | Cc1cc2c(Oc3ccc4c(c3)[C@H](C)N(C(=O)Nc3cnc(OC5CCNCC5)c(C(F)(F)F)c3)CC4)ccnc2[nH]1 [VI-1]
< 500 | Cc1cc2c(Oc3ccc4c(c3)[C@H](C)N(C(=O)Nc3cnc(OC5CCN(C)CC5)c(C(F)(F)F)c3)CC4)ccnc2[nH]1 [VI-2]
< 500 | CCN1CCC(Oc2ncc(NC(=O)N3CCc4ccc(Oc5ccnc6[nH]c(C)cc56)cc4[C@@H]3C)cc2C(F)(F)F)CC1 [VI-3]
< 500 | Cc1cc2c(Oc3ccc4c(c3)[C@H](C)N(C(=O)Nc3cnc(NC5CCN(C)CC5)c(C(F)(F)F)c3)CC4)ccnc2[nH]1 [VI-7]
500 to 5000 | Cc1cc2c(Oc3ccc4c(c3)[C@H](C)N(C(=O)Nc3cnc(OC5CN(C)C5)c(C(F)(F)F)c3)CC4)ccnc2[nH]1 [VI-12]
5000 to 10000 | Cc1cc2c(Oc3ccc4c(c3)[C@H](C)N(C(=O)Nc3cnc(Oc5ccncc5)c(C(F)(F)F)c3)CC4)ccnc2[nH]1 [VI-14]
500 to 5000 | Cc1cc2c(Oc3ccc4c(c3)[C@H](C)N(C(=O)Nc3cnc(OCCN(C)C)c(C(F)(F)F)c3)CC4)ccnc2[nH]1 [VI-15]
500 to 5000 | Cc1cc2c(Oc3ccc4c(c3)[C@H](C)N(C(=O)Nc3cnc(OCCCN(C)C)c(C(F)(F)F)c3)CC4)ccnc2[nH]1 [VI-16]
500 to 5000 | Cc1cc2c(Oc3ccc4c(c3)[C@H](C)N(C(=O)Nc3cnc(OCCn5ccnc5)c(C(F)(F)F)c3)CC4)ccnc2[nH]1 [VI-17]
< 500 | Cc1cc2c(Oc3ccc4c(c3)[C@H](C)N(C(=O)Nc3cnc(OC5CCN(CCO)CC5)c(C(F)(F)F)c3)CC4)ccnc2[nH]1 [VI-18]
